Results reported in US20220362262A1, “METHODS AND COMPOSITIONS FOR TISSUE REGENERATION” (Institute of Zoology, Chinese Academy of Sciences, priority 2019, published 2022).
“Also recorded” adds a separate entry of the source.

What was measured:
[1] = test system: primary human myoblasts / myocytes; assay: Etomoxir (CPT1 inhibitor) at different time-windows of myoblast differentiation: cell numbers, Western blot; format: cell-based
human myocytes = assay: Seahorse O2 consumption rates in differentiating myocytes; format: cell-based; settings: etomoxir at early 0-12 h and 12-24 h time-windows only
Description: HSKM progenitors were seeded onto Seahorse XF96 Cell Culture Microplate (Agilent), pre-coated with gelatin (0.1%, Merck-Millipore), in growth media at 10,000 cells per well. […] Before performing the Seahorse XF cell Mito Stress Test assay, cell culture media were replaced with assay media (Seahorse XF DMEM Medium, pH 7.4, 2 mM pyruvate, 2 mM glutamine) (Agilent) and incubated in a CO2-free incubator at 37° C. for 1 hour to equilibrate temperature and pH for each well. During the assay, Oligomycin (2 uM, Agilent), FCCP (0.5 uM, Agilent), and a mixture of Antimycin A and Rotenone (0.5 uM, Agilent), were injected sequentially and measurements were taken according to manufacturer's instructions. The data was analyzed using WAVE software.

cryoinjured TA muscle [2] = assay: Muscle regeneration after cryoinjury: regenerative index, myogenic proteins, myofiber diameter, grip strength after bolus injection; format: in vivo, mice; settings: for grip strength: 14 days post-injury, 6-week old mice, prostaglandin at 0 h, rosiglitazone at 24 h post-injury; for hypertrophic growth (myofiber cross-sectional Feret diameters): prostaglandin at day 0, rosiglitazone at day 1; for regenerative index (fraction of nuclei in embryonic MHC-positive myofibers): single bolus, combinations: prostaglandin at day 0, rosiglitazone at day 1, relative to DMSO vehicle
Description: (§1) Some tissues were flash frozen for cryosectioning.

[3] = test system: Ki67-positive proliferative progenitor cells in liver, heart, skin, hair follicles; assay: Ki67+ progenitor cells in non-skeletal muscle tissues without injury, 2 days after intra-peritoneal treprostinil; format: in vivo, mice
Description: as §1

[4] = test system: pure primary human myoblasts; assay: Pure primary human myoblasts treated with PGI2-related drugs (Western blot, qRT-PCR); format: cell-based; settings: for H3K9ac and MyoD protein (Western blot) / PPARG protein levels (Western blot): pure primary human myoblasts, relative to DMSO
[5] = test system: muscle stem cells and myoblasts in gastrocnemius, quadriceps and TA muscle; assay: Stem cell and myoblast activation in skeletal muscles without injury, immunofluorescence 2 days after single bolus; format: in vivo, mice; settings: for fraction of proliferative muscle stem cells (Pax7-positive Ki67-positive cells) / total pool of muscle stem cells (Pax7-positive cells) / total pool of proliferative cells (Ki67-positive cells): without injury
Description: as §1

[6] = test system: fibrosis in TA muscle, liver, skin and heart of 2-year old mice; assay: Aging-induced fibrosis and fibrotic precursors in 2-year old mice after daily injection; format: in vivo; settings: for relative changes in the % fibrotic area (Masson trichrome staining) / relative changes in the percentage fraction of fibrotic precursors (PGDFRA-positive and Ki67-positive): 7 days post-injection, 2-year old mice; for relative changes in the % fibrotic area (Masson trichrome staining) / relative changes in the percentage fraction of fibrotic precursors (PGDFRA-positive and Ki67-positive) / aging-induced fibrosis (fibrotic area) in multiple non-skeletal muscle tissues: daily injection
Description: as §1

primary human myoblasts = assay: Proliferation of primary human myoblasts under PGI2 treatment; format: cell-based
cryoinjured TA muscle [7] = assay: PGI2 bolus in cryoinjured TA muscle: cAMP, PPARs, H3K9ac and myogenic markers; format: in vivo, mice
[8] = TA muscle, 2 days after intramuscular single bolus, with or without HGF
[9] = TA muscle, 2 days after intramuscular single bolus
[10] = gastrocnemius muscle, 2 days after intra-peritoneal single bolus
[11] = gastrocnemius muscle, 2 days after intramuscular single bolus, PPARD drugs
[12] = gastrocnemius muscle, 2 days after intraperitoneal single bolus, with or without fenofibrate or WY-14643
[13] = quadriceps muscles, 2 days after intra-peritoneal single bolus
[14] = liver, skin and heart, 2-year-old mice
[15] = differentiating myoblasts (24 h post-differentiation)
[16] = TA muscle 1-2 days post-cryoinjury
[17] = injured TA muscle, single bolus

SMILES: CCOC(=O)[C@@]1(CCCCCCOc2ccc(Cl)cc2)CO1 [etomoxir]
- MHC and MYOG protein phenotype (Western blot) ([1]; 0-24 h mitochondrial FAO inhibition): MHC^low; MYOG^low
- MHC and MYOG protein phenotype (Western blot) ([1]; 24 h-48 h mitochondrial FAO inhibition): MHC^low; MYOG^high
- MHC and MYOG protein phenotype (Western blot) ([1]; 48 h-72 h mitochondrial FAO inhibition): MHC^high; MYOG^low
- MHC and MYOG protein phenotype (Western blot) ([1]; 72 h-96 h mitochondrial FAO inhibition): MHC^high; MYOG^high
- myocyte survival (relative cell numbers) ([1]; treatment at 0-24 h and 24-48 h of myoblast differentiation): severely compromised myocyte survival
- O2 consumption rates (human myocytes): decrease O2 consumption rates

SMILES: CCCCC[C@H](O)CC[C@@H]1[C@H]2Cc3cccc(OCC(=O)O)c3C[C@H]2C[C@H]1O [treprostinil]
- grip strength (cryoinjured TA muscle [2]): partially restore grip strength
- Pax7, MyoD, MyoG and Myh3 protein expression (Western blot densitometry) (cryoinjured TA muscle [2]; TA muscle 6 days post-cryoinjury, treprostinil at day 0, rosiglitazone at day 1 in the combination): significantly increase; also recorded: could also increase
- hypertrophic growth (myofiber cross-sectional Feret diameters) (cryoinjured TA muscle [2]; TA muscle 6.5 days post-injury): increase hypertrophic growth
- regenerative index (fraction of nuclei in embryonic MHC-positive myofibers) (cryoinjured TA muscle [2]; TA muscle 6.5 days post-injury): significantly increase muscle regeneration
- total pool of proliferative progenitor cells (Ki67-positive cells) ([3]; endoderm-derived liver tissue): significantly increased
- total pool of proliferative progenitor cells (Ki67-positive cells) ([3]; endoderm-derived liver tissue, listed as Treprostinil): increase the total pool of Ki67+ progenitor cells
- total pool of proliferative progenitor cells (Ki67-positive cells) ([3]; mesoderm-derived heart and cardiac muscle tissue): significantly increased; also recorded: increase the total pool of Ki67+ progenitor cells
- total pool of proliferative progenitor cells (Ki67-positive cells) ([3]; neuroectoderm-derived skin tissue): significantly increased; also recorded: increase
- total pool of proliferative progenitor cells (Ki67-positive cells) ([3]; skin tissue's telogen hair follicles): significantly increased; also recorded: increase
- H3K9ac and MyoD protein (Western blot) [4]: followed the same pattern of regulation as PPARG
- PPARG protein levels (Western blot) [4]: stabilize and/or upregulate
- percentage fraction of proliferative muscle stem cells (Pax7-positive Ki67-positive cells) [5, 8]: significantly increased; also recorded: could increase
- percentage fraction of proliferative myoblasts (MyoD-positive Ki67-positive cells) [5, 8]: slightly increased; also recorded: could increase
- fraction of proliferative muscle stem cells (Pax7-positive Ki67-positive cells) [5, 9]: significantly increased
- fraction of proliferative muscle stem cells (Pax7-positive Ki67-positive cells) [5, 10]: significantly increased
- total pool of muscle stem cells (Pax7-positive cells) [5, 10]: significantly increased
- total pool of proliferative cells (Ki67-positive cells) [5, 10]: significantly increased
- percentage fraction of proliferative muscle stem cells (Pax7-positive Ki67-positive cells) [5, 11]: significantly increased
- percentage fraction of proliferative myoblasts (MyoD-positive Ki67-positive cells) [5, 11]: slightly increased
- percentage fraction of myoblasts (MyoD-positive cells) [5, 12]: significantly increased
- percentage fraction of proliferative myoblasts (MyoD-positive Ki67-positive cells) [5, 12]: significantly increased
- fraction of proliferative muscle stem cells (Pax7-positive Ki67-positive cells) [5, 13]: significantly increased
- total pool of muscle stem cells (Pax7-positive cells) [5, 13]: significantly increased
- total pool of proliferative cells (Ki67-positive cells) [5, 13]: significantly increased
- relative changes in the % fibrotic area (Masson trichrome staining) ([6]; TA muscle): partially reverse the aged muscle fibrosis; also recorded: significant reversal of aging-induced fibrosis
- relative changes in the percentage fraction of fibrotic precursors (PGDFRA-positive and Ki67-positive) ([6]; TA muscle): partially suppress the aged muscle fibrotic precursors
- relative changes in the % fibrotic area (Masson trichrome staining) ([6]; heart tissue): partially reverse the aged cardiac fibrosis
- relative changes in the percentage fraction of fibrotic precursors (PGDFRA-positive and Ki67-positive) ([6]; heart tissue): partially suppress the aged cardiac fibrotic precursors
- relative changes in the % fibrotic area (Masson trichrome staining) ([6]; liver tissue): partially reverse the aged liver fibrosis
- relative changes in the percentage fraction of fibrotic precursors (PGDFRA-positive and Ki67-positive) ([6]; liver tissue): partially suppress the aged liver fibrotic precursors
- PDGFRA+ Ki67+ fibrotic precursor numbers in multiple non-skeletal muscle tissues [6, 14]: suppress
- aging-induced fibrosis (fibrotic area) in multiple non-skeletal muscle tissues [6, 14]: significant reversal of aging-induced fibrosis
- relative changes in the % fibrotic area (Masson trichrome staining) ([6]; skin tissue): partially reverse the aged skin fibrosis
- relative changes in the percentage fraction of fibrotic precursors (PGDFRA-positive and Ki67-positive) ([6]; skin tissue): partially suppress the aged skin fibrotic precursors

SMILES: CCCCC[C@H](O)/C=C/[C@@H]1[C@H]2C/C(=C/CCCC(=O)O)O[C@H]2C[C@H]1O [PGI2, prostacyclin]
- proliferation (primary human myoblasts; early passage primary human myoblasts (passage 12)): significantly increased proliferation; also recorded: significantly increase the proliferation rate
- proliferation (primary human myoblasts; late passage primary human myoblasts (passage 18)): significantly increased proliferation; also recorded: significantly increase the proliferation rate
- grip strength (cryoinjured TA muscle [2]): partially restore grip strength
- hypertrophic growth (myofiber cross-sectional Feret diameters) (cryoinjured TA muscle [2]; TA muscle 6.5 days post-injury): increase hypertrophic growth
- regenerative index (fraction of nuclei in embryonic MHC-positive myofibers) (cryoinjured TA muscle [2]; TA muscle 6.5 days post-injury): significantly increase muscle regeneration; also recorded: significantly promoted muscle regeneration
- optimal PGI2 concentration for muscle regeneration (regenerative index saturated and peaked) (cryoinjured TA muscle [2]; titration of single bolus, TA muscle 6.5 days post-injury): 6.5 to 13 mM
- mRNA markers of myoblasts including MyoD1 and Pax3 [4, 15]: increased
- mRNA markers of myogenic differentiation including Myog, Myhc, Myh2, Myh3, Myh7, Myh8, Acta1 [4, 15]: sufficient to block committed myocytes from undergoing terminal differentiation; also recorded: decreased
- mRNA markers of myogenic differentiation including Myhc, Myh3, Myh8, and Acta1 ([4]; proliferative myoblasts (24 h pre-differentiation)): sufficient to promote proliferative myoblasts to undergo differentiation; also recorded: increased
- H3K9ac and MyoD protein (Western blot) [4]: increases; also recorded: followed the same pattern of regulation as PPARG
- PPARG protein levels (Western blot) [4]: increases PPARG protein; also recorded: stabilize and/or upregulate
- H3K9ac levels (Western blot) (cryoinjured TA muscle [7]; [16]): increased protein acetylation and especially histone acetylation
- PPARA protein (Western blot) (cryoinjured TA muscle [7]; [16]): suppresses the increase in PPARA; also recorded: suppressed PPARA protein
- PPARD protein (Western blot) (cryoinjured TA muscle [7]; [16]): exerts little effect on PPARD
- PPARG protein (Western blot) (cryoinjured TA muscle [7]; [16]): accelerates the increase in PPARG; also recorded: increased PPARG protein
- percentage fraction of PPARG-positive cells (immunofluorescence) (cryoinjured TA muscle [7]; TA muscle 1-2 days post-freeze injury): significantly increase PPARG-positive cells
- abundance of cyclic adenosine monophosphate (cAMP), MALDI-MSI (cryoinjured TA muscle [7]; TA muscle 6 days after single bolus): significantly decreased
- committed myoblasts (MyoG-positive Ki67-positive cells, immunofluorescence) (cryoinjured TA muscle [7]; TA muscle over 6 days post-injury (days 2-4), single bolus at 0 h): significantly increase committed myoblasts; also recorded: significantly increased
- PPARA and PPARD mRNA expression (qRT-PCR) (cryoinjured TA muscle [7]; [17]): not PPARA nor PPARD
- PPARG mRNA expression (qRT-PCR) (cryoinjured TA muscle [7]; [17]): significantly increase PPARG mRNA expression
- Pax7, MyoD, MyoG, Myh3 mRNA expression (qRT-PCR) (cryoinjured TA muscle [7]; [17]): significantly increased
- PPARA, PPARD, PPARG, H3K9ac, PAX7, MyoD, MyoG and Myh3 protein expression (Western blot) (cryoinjured TA muscle [7]; non-injured and injured region of TA muscle, 6 days post-cryoinjury): can increase; also recorded: significantly increased all myogenesis markers
- percentage fraction of proliferative muscle stem cells (Pax7-positive Ki67-positive cells) [5, 8]: significantly increased
- percentage fraction of proliferative myoblasts (MyoD-positive Ki67-positive cells) [5, 8]: significantly decreased
- fraction of proliferative muscle stem cells (Pax7-positive Ki67-positive cells) [5, 9]: significantly increased
- relative changes in the % fibrotic area (Masson trichrome staining) ([6]; TA muscle): partially reverse the aged muscle fibrosis; also recorded: significant reversal of aging-induced fibrosis
- relative changes in the percentage fraction of fibrotic precursors (PGDFRA-positive and Ki67-positive) ([6]; TA muscle): partially suppress the aged muscle fibrotic precursors
- relative changes in the % fibrotic area (Masson trichrome staining) ([6]; heart tissue): partially reverse the aged cardiac fibrosis
- relative changes in the percentage fraction of fibrotic precursors (PGDFRA-positive and Ki67-positive) ([6]; heart tissue): partially suppress the aged cardiac fibrotic precursors
- relative changes in the % fibrotic area (Masson trichrome staining) ([6]; liver tissue): partially reverse the aged liver fibrosis
- relative changes in the percentage fraction of fibrotic precursors (PGDFRA-positive and Ki67-positive) ([6]; liver tissue): partially suppress the aged liver fibrotic precursors
- aging-induced fibrosis (fibrotic area) in multiple non-skeletal muscle tissues [6, 14]: significant reversal of aging-induced fibrosis
- relative changes in the % fibrotic area (Masson trichrome staining) ([6]; skin tissue): partially reverse the aged skin fibrosis
- relative changes in the percentage fraction of fibrotic precursors (PGDFRA-positive and Ki67-positive) ([6]; skin tissue): partially suppress the aged skin fibrotic precursors
